US7271253B1, “Safe process for the preparation of balsalazide” (Apotex Pharmachem Inc., priority 2006, dated 2007)

Legend:
[1] = Solubility in water of N-(4-aminobenzoyl)-β-alanine salts; type: physicochemical
From the text: According to one aspect of the invention, a more soluble salt of N-(4-aminobenzoyl)-β-alanine is provided which overcomes the use of the previous forms which were virtually insoluble in water.
(for example as depicted in FIG. 1). This latter temperature was selected as it provided for optimal reaction.
The preferred concentration of the aqueous sulfonic acid solution was about 4% to about 14%, more preferably about 7% to about 12%, and most preferably about 9%. The fact that higher concentrations were preferred, despite the decreased solubility of the salt, was a consequence of the fact that operationally, the use of about 9% sulfonic acid concentrations permitted proportionally lower reaction volumes, without compromising safety, and was advantageous for commercial scale-up.
FIG. 3—A comparison of the relative solubility of mesylate in differing concentrations of aqueous methanesulfonic acid.

[2] = RSST, different reaction temperatures, FIG. 1
From the text: The decomposition of the intermediate was indicated by the pressure increase.
FIG. 1—Plot showing the rate of decomposition of diazonium mesylate at different temperatures. Increased pressure is indicative of the decomposition of the mesylate to form nitrogen gas.

[3] = DSC, FIG. 2

**Q.** For `Nc1ccc(C(=O)NCCC(=O)O)cc1` [chloride, N-(4-aminobenzoyl)-β-alanine], which solubility in water [1] is on record?
**A.** poorly soluble

**Q.** What about the solubility in water ([1]; listed as hydrochloride salt of 4-aminobenzoyl-β-alanine) of the same compound?
**A.** poor solubility

**Q.** With `CS(=O)(=O)[O-].N#[N+]c1ccc(C(=O)NCCC(=O)O)cc1` [diazonium mesylate, N-(4-diazoniumbenzoyl)-β-alanine sulfonate salt] as the compound, how does the “temperature at which decomposition may start” value [2] read?
**A.** 25 °C

**Q.** And the “decomposition energy of solid relative to solution” value [3]?
**A.** almost ten-fold higher

**Q.** For `Nc1ccc(C(=O)NCCC(=O)O)cc1` [free-base, N-(4-aminobenzoyl)-β-alanine], which “solubility at higher concentrations of sulfonic acid” value ([1]; differing concentrations of aqueous methanesulfonic acid, FIG. 3) is on record?
**A.** decrease in the solubility

**Q.** With `CS(=O)(=O)O.Nc1ccc(C(=O)NCCC(=O)O)cc1` [methanesulfonic acid salt, N-(4-ammoniumbenzoyl)-β-alanine sulfonate salt] as the compound, how does the solubility in water [1] read?
**A.** unexpectedly high water solubility
